Assays:
MEF cells = assay: Clonogenic survival assay, MEF; type: cell-based, mouse; details: AZD2281 1 μM versus MMS only
Method: Briefly, MEF cells were trypsinized and the appropriate number of cells was replated on 10 cm tissue culture dishes. […] Cells were fixed and stained using staining solution (0.05% crystal violet, 50% methanol in PBS); colonies were counted using an AlphaImager 3400 (Alpha Innotech Inc.). The percent of survival was determined as described (Hall & Giccia, 2005, “Radiobiology for the Radiologist”, 6th Ed., Philadelphia, Pa.: Lippincott Williams & Wilkins, pp. 30-45). The percent of survival obtained from untreated cells was normalized to 100% survival.

RecA = molecular target: T1, RecA (Escherichia coli, UniProt P0A7G6); assay: biochemical; set-up: species or system E. coli; details: for IC50: IC50 (RecA), RecA 1 μM, ssDNA 3 μM, dsDNA 50 μM; for inhibition of RecA DNA strand exchange, in words: up to 100 μM
T1 construct: purchased USB Inc. (Cleveland, Ohio)
Method: (Mazin et al., 2000, EMBO J. 19:1148-56). When indicated, chemical compounds in specified concentrations were added and incubation was continued for 30 min at 37° C. D-loop formation was initiated by addition of supercoiled pUC19 dsDNA (50 μM, nt) and carried out for 3 min at 37° C. The DNA products were deproteinized and analyzed as described above for the Rad51-promoted reaction.
(§1) IC50 values were calculated using GraphPad Prism V5.0 software and the sigmoidal dose-response function. The data were obtained from three independent repeats of experiments.

RAD51 = molecular target: T2, RAD51 (Homo sapiens, UniProt Q06609); assay: D-loop assay for RAD51; type: biochemical; details: for inhibitory effect on D-loop formation by RAD51, in words: B02 derivatives 50 μM; for IC50: RAD51 1 μM, ssDNA 3 μM, dsDNA 50 μM, compound added after filament formation
T2 construct: made in house
T2 sequence (Q06609 1-339): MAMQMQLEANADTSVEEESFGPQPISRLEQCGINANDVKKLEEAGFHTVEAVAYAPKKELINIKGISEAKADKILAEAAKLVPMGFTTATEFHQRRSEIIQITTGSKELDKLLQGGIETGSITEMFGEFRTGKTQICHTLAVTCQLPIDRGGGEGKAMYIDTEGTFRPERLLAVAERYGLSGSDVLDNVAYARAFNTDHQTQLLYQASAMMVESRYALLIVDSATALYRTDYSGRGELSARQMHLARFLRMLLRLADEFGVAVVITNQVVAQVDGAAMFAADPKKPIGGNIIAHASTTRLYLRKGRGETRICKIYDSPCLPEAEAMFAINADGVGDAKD
Method: When indicated, chemical compounds in question were added in specified concentrations and incubation was continued for 30 min at 37° C. D-loop formation was initiated by addition of supercoiled pUC19 dsDNA (50 μM, nt) and continued for 15 min. Reactions were stopped by addition of SDS to 1% (w/v) and proteinase K to 880 μg ml^−1 followed by incubation for 15 min at 37° C. […] The yield of joint molecules was expressed as a percentage of the total plasmid DNA.
The reaction was deproteinized and analyzed as described above.
as §1

T1 sequence (P0A7G6 whole entry): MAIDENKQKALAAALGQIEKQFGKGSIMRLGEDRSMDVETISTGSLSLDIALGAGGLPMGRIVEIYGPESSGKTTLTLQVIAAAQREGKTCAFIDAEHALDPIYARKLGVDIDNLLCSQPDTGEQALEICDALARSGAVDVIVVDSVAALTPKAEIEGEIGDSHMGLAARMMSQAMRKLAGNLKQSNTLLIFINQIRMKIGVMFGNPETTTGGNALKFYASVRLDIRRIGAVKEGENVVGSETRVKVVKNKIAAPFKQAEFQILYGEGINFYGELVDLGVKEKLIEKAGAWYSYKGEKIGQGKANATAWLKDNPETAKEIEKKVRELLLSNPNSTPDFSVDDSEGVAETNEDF

O=C(c1cc(Cc2n[nH]c(=O)c3ccccc23)ccc1F)N1CCN(C(=O)C2CC2)CC1 [AZD2281, 4-[(3-[(4-cyclopropylcarbonyl)piperazin-4-yl]carbonyl)-4-fluorophenyl]methyl(2H)phthalazin-1-one, reference compound]
sensitivity to MMS (MEF cells): more sensitive

CCn1c(/C=C/c2cccnc2)nc2ccccc2c1=O [Compound C3a, (E)-3-ethyl-2-(2-(pyridin-3-yl)vinyl)quinazolin-4(3H)-one]
IC50 (RecA): > 100 µM | inhibition of RecA DNA strand exchange, in words (RecA): do not inhibit | inhibitory effect on D-loop formation by RAD51, in words (RAD51): retain the inhibitory effect | IC50 (RAD51): 15.3 µM

Cc1cccc(-n2c(/C=C/c3cccnc3)nc3ccccc3c2=O)c1 [Compound C3b, (E)-2-(2-(pyridin-3-yl)vinyl)-3-(m-tolyl)quinazolin-4(3H)-one]
IC50 (RecA): > 100 µM | inhibition of RecA DNA strand exchange, in words (RecA): do not inhibit | inhibitory effect on D-loop formation by RAD51, in words (RAD51): retain the inhibitory effect | IC50 (RAD51): 27.3 µM

Cc1ccc(-n2c(C=Cc3cccnc3)nc3ccccc3c2=O)cc1 [Compound C3c]
inhibitory effect on D-loop formation by RAD51, in words (RAD51): eliminates the inhibition

O=c1c2ccccc2nc(C=Cc2cccnc2)n1-c1ccccc1 [Compound C3d]
inhibitory effect on D-loop formation by RAD51, in words (RAD51): eliminates the inhibition

Cn1c(C=Cc2cccnc2)nc2ccccc2c1=O [Compound C3e]
inhibitory effect on D-loop formation by RAD51, in words (RAD51): eliminates the inhibition
